In ChEMBL document CHEMBL1201862, “PubChem BioAssay data set” (2004):
The source made the active and inactive calls.

Legend:
[1] = target: T1, Nucleotide-binding oligomerization domain-containing protein 1 (Homo sapiens, UniProt Q9Y239); experiment: SAR analysis of NF-kappaB dependent luciferase using DAP as an inducer - Set 2. [Related pubchem assays (depositor defined):AID1566, AID1575, AID1578, AID1579, AID1849, AID1852, AID2264]; format: functional
T1 sequence (Q9Y239 whole entry): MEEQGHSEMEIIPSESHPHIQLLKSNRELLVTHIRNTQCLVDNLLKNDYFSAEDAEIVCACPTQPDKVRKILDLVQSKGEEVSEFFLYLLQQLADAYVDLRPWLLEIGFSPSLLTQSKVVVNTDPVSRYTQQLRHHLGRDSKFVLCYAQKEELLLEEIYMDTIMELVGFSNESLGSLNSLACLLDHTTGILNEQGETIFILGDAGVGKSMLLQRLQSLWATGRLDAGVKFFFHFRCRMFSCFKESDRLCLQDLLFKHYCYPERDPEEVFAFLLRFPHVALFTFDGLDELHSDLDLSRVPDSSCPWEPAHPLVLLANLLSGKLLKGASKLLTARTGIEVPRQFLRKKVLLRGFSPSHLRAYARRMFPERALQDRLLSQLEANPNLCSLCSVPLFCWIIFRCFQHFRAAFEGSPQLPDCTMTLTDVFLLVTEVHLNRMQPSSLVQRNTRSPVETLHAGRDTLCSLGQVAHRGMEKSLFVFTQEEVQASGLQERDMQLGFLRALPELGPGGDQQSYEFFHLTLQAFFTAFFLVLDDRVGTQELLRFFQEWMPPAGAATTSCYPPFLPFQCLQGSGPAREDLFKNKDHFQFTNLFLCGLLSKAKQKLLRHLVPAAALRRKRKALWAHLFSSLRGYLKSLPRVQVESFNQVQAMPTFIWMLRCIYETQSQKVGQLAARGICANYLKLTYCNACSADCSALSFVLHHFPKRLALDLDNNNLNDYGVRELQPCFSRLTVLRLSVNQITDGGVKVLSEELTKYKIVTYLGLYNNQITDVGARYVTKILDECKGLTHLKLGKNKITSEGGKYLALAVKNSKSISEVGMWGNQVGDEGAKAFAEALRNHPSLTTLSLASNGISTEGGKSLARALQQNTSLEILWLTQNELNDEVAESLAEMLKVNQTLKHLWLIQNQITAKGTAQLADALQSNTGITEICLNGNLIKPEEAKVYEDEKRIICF

Interleukin-8 [2] = target: T2, Interleukin-8 (Homo sapiens, UniProt P10145); experiment: SAR analysis of Tumor necrosis factor alpha (TNF-alpha) induced IL-8 secretion in MCF-7/NOD1 cells - Set 2. [Related pubchem assays (depositor defined):AID1575, AID2250, AID2260]; format: functional, cell-based
T2 sequence (P10145 whole entry): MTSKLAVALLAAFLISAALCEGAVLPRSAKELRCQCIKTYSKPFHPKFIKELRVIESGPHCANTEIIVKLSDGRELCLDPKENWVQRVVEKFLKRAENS

Interleukin-8 [3] = target: T2, Interleukin-8; experiment: SAR analysis of GM-Tri-DAP induced IL-8 secretion in MCF-7/NOD1 cells - Set 2. [Related pubchem assays (depositor defined):AID1575, AID1578, AID2333]; format: functional, cell-based
[4] = target: Nucleotide-binding oligomerization domain-containing protein 2 (Homo sapiens, UniProt Q9HC29); experiment: NOD2 inhibitors, SAR follow-up, set 2 (AID 2475); format: functional
[5] = target: Glucose-6-phosphate 1-dehydrogenase (Homo sapiens, UniProt P11413); experiment: human G6PD enzyme inhibitors, dose response, selectivity assay for P. falciparum G6PD inhibitor project, biochemical, fluorescence (AID 504792); format: functional
[6] = THP-1 cell cytotoxicity, dose response, cytotoxicity control for non-replicating M. tuberculosis project (AID 489025); format: functional
HEK293 = experiment: SAR analysis of compounds that are cytotoxic to HEK293 - Set 2. [Related pubchem assays (depositor defined):AID1575, AID1578, AID1849, AID2001, AID2333, AID2334, AID2335, AID2337, AID2800]; format: functional, cell-based; settings: Homo sapiens
[7] = target: T1, Nucleotide-binding oligomerization domain-containing protein 1; experiment: SAR analysis of compounds that inhibit NOD1 - Set 2. [Related pubchem assays (depositor defined):AID1566, AID1575, AID1578, AID1849, AID1852, AID2333, AID2335, AID2798]; format: functional
[8] = Vero E6 cell cytotoxicity, dose response, cytotoxicity control for non-replicating M. tuberculosis project, secondary assay (AID 492998); format: functional, VeroE6; settings: Vero C1008
cells = format: functional
CHO = experiment: cytotoxicity in TLR9-MyD88 CHO cells, dose response, cytotoxicity control for TLR9-MyD88 binding inhibitor project, cell-based, luminescence (AID 588339); format: functional, hamster; settings: Cricetulus griseus;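 further: CHO cells stably coexpressing TLR9 and MyD88 fusions from primary screen; compound exposure lasted 48 hours before viability readout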
Beta Lactamase = Beta Lactamase (Pseudomonas aeruginosa, UniProt Q932Y6); experiment: beta-lactamase reporter inhibitor potency, dose response, artefact control for TLR9-MyD88 binding inhibitor project, BLA reporter cells, FRET fluorescence (AID 588341); format: cell-based;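 further: cell based assay in CHO-K1 cells stably expressing beta-lactamase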
INS1 = experiment: beta cell apoptosis inhibitors, cytokine rescue, dose response, luminescence, retest (AID 449756); format: functional, cell-based; settings: Rattus norvegicus;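 further: cell death triggered by IL-1 beta plus TNF-alpha plus IFN-gamma mixture; protective hits raise ATP signal compared with cytokine alone wells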
[9] = Shn3 3'UTR reporter inhibitors, dose response, cell-based, Clone20 osteoblasts, firefly luciferase, cherry-picked (AID 624132); format: functional;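 further: firefly luciferase luminescence from reporter carrying the Shn3 3'UTR in osteoblasts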
[10] = HepG2 cell cytotoxicity, dose response, cytotoxicity control for Shn3 inhibitor project, CellTiter-Glo, cherry-picked (AID 624134); format: functional, cell-based
[11] = control 3'UTR Renilla luciferase suppression, dose response, counter-screen for Shn3 inhibitor project, cell-based, Clone20-Shn3RL, cherry-picked (AID 624133); format: functional
[12] = HEK293T cell cytotoxicity, dose response, cytotoxicity control for HIV Vif inhibitor project, cherry-picks (AID 652208); format: functional, cell-based
Paired box protein Pax-8 = Paired box protein Pax-8 (Homo sapiens, UniProt Q06710); experiment: inhibitors of PAX8-driven TPO luciferase reporter, dose response, RMG-I cells, cherry-pick (AID 687027); format: functional, cell-based;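 further: luciferase reporter driven by Pax8 target thyroperoxidase promoter measured by SteadyGlo luminescence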
[13] = target: Transitional endoplasmic reticulum ATPase (Homo sapiens, UniProt P55072, C522A); experiment: C522A mutant p97 ATPase inhibitors, dose response, counter-screen for p97 inhibitor project, biochemical, luminescence (AID 1544)
[14] = target: Transitional endoplasmic reticulum ATPase (Homo sapiens, UniProt P55072); experiment: p97 ATPase inhibitors, dose response, biochemical (AID 1534)
[15] = target: Ras and Rab interactor 1/Tyrosine-protein kinase ABL1 (Homo sapiens, UniProt P00519+Q13671); experiment: biochemical; format: functional;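 further: biochemical TR-FRET dose-response test measuring inhibition of binding between Rin1 and Abl proteins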

Chain of Paired box protein Pax-8 (Q06710 whole entry): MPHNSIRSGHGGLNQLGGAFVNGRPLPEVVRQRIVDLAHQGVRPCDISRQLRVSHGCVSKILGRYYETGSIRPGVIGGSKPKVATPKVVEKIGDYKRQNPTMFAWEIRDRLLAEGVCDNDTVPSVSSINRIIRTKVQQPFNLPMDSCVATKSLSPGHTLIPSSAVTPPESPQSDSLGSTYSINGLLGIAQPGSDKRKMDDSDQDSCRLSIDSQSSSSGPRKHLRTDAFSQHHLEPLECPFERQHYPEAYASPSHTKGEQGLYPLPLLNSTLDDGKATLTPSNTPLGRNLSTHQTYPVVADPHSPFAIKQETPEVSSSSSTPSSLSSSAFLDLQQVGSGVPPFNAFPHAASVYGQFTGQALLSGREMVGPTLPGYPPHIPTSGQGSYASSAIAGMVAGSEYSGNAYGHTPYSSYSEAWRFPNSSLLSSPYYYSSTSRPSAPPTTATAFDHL
Chain of Glucose-6-phosphate 1-dehydrogenase (P11413 whole entry): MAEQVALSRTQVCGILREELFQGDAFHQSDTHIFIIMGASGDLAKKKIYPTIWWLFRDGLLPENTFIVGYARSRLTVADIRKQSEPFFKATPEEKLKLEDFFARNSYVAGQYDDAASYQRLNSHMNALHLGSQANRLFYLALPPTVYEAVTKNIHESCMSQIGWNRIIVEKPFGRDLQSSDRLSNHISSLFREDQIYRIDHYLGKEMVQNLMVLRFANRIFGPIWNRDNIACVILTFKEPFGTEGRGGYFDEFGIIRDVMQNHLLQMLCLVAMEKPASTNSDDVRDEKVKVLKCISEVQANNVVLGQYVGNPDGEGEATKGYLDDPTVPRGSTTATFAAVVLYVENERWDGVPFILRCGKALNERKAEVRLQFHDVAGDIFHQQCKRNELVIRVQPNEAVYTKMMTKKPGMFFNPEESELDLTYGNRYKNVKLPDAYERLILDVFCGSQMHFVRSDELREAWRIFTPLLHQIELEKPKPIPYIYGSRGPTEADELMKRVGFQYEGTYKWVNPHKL
Chain of Beta Lactamase (Q932Y6 whole entry): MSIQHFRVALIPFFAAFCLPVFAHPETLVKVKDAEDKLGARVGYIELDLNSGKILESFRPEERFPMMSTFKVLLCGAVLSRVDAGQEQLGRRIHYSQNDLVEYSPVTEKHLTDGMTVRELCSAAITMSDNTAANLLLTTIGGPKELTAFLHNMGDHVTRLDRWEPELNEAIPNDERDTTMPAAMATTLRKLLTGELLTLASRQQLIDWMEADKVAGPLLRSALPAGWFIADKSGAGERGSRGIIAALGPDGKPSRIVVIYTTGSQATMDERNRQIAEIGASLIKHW
Chain of Nucleotide-binding oligomerization domain-containing protein 2 (Q9HC29 whole entry, the tested form may be a part): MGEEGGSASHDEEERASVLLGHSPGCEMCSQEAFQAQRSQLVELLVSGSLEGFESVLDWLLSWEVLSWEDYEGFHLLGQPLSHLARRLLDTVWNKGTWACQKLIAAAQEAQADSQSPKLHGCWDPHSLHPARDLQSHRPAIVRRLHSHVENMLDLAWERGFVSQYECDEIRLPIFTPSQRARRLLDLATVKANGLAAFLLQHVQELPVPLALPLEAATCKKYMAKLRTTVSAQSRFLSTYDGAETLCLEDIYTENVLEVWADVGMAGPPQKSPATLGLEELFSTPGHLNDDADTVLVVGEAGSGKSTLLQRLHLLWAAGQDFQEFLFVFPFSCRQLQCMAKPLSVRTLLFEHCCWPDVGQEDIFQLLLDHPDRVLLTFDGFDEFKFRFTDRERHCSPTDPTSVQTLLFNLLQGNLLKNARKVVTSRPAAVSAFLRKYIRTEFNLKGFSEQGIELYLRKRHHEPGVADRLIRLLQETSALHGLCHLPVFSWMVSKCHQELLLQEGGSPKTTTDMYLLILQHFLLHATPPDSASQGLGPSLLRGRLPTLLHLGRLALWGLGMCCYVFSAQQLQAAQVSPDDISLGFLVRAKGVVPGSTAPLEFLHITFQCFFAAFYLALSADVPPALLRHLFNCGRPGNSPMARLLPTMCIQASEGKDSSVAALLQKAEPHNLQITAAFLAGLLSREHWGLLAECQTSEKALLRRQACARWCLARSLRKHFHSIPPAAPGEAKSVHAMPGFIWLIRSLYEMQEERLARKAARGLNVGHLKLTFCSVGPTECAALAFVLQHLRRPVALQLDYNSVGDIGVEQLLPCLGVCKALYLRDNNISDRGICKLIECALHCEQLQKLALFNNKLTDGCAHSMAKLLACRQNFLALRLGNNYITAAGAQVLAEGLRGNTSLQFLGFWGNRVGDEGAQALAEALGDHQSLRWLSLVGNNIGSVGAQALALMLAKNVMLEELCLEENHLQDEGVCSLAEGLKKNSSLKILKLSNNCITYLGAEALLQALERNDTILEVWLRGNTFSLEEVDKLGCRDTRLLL
Chain of Transitional endoplasmic reticulum ATPase (Homo sapiens, UniProt P55072, C522A) (P55072 2-806 C522A limits assumed): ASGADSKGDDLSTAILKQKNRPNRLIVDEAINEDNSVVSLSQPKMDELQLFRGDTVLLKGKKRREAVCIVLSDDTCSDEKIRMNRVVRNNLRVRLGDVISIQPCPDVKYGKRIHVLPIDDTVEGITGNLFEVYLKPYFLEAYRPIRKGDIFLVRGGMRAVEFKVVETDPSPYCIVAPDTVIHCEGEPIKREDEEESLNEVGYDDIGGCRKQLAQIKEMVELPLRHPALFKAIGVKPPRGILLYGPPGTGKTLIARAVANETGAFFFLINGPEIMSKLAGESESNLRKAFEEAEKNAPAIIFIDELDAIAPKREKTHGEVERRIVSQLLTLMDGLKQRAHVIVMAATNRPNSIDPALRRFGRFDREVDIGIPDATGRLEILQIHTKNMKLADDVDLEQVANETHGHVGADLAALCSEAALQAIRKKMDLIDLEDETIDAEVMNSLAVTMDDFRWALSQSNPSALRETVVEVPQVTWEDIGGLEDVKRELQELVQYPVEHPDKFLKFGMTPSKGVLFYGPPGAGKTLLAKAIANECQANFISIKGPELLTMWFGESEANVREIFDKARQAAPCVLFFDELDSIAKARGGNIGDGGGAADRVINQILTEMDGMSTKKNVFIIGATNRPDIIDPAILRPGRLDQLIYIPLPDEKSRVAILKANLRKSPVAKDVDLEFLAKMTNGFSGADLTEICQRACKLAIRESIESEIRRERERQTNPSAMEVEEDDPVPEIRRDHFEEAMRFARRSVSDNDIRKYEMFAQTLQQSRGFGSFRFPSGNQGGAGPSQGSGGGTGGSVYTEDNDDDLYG
Chain of Transitional endoplasmic reticulum ATPase (Homo sapiens, UniProt P55072) (P55072 whole entry): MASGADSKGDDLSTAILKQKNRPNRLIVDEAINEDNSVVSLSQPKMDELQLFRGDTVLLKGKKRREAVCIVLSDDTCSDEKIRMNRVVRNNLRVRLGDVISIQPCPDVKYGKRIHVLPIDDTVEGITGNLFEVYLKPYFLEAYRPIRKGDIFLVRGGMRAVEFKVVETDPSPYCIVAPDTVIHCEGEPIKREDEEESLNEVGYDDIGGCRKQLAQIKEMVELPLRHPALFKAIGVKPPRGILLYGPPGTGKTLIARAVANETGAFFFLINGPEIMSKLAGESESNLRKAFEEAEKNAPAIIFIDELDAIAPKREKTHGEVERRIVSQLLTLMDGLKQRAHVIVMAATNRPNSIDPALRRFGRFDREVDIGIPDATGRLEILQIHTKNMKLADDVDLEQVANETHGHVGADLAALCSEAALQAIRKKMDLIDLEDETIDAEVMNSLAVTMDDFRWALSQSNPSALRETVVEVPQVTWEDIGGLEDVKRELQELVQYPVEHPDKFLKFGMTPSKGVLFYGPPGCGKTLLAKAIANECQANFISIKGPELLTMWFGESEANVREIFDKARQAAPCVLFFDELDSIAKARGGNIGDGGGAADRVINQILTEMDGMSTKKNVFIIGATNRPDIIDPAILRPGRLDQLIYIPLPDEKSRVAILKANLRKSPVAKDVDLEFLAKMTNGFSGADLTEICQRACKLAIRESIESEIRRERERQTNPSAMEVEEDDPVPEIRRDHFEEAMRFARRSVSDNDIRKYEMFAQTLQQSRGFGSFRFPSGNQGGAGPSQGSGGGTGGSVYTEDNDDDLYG

Cn1c(=O)[nH]c(=O)c2c1nc([N+](=O)[O-])n2Cc1ccccc1
IC50 [1]: > 25 µM (inactive) | IC50 (Interleukin-8 [2]): 3.5 µM (active) | IC50 (Interleukin-8 [3]): 2.16 µM (active) | IC50 [4]: 0.748 µM (active) | IC50 [5]: 47.9 µM (inactive) | CC50 [6]: 3.23 µM (active) | IC50 (HEK293): 13.7 µM (active) | IC50 [7]: 0.785 µM (active) | CC50 [8]: 6.75 µM (active) | IC50 (cells): 4.75 µM (active) | IC50 (CHO): 2.23 µM (active) | IC50 (Beta Lactamase): > 49.8 µM (inactive) | AC50 (INS1): 7.36 µM (active) | AC50 [9]: 1.9 µM (active) | AC50 [10]: 18.3 µM (active) | AC50 [11]: 5.91 µM (active) | AC50 [12]: 4.52 µM (active) | AC50 (Paired box protein Pax-8): 3.81 µM (active)

O=C(NC1(O)C(=O)c2ccccc2C1=O)c1c(Cl)cccc1Cl
IC50 [13]: > 50 µM (not active) | IC50 [14]: > 50 µM (not active) | IC50 [15]: 21 µM (inactive)
